# Data: the RepoRT retention time repository
# Assay: Waters ACQUITY UPLC BEH C18, 100 × 2.1 mm, 1.7 µm, 40 °C, 0.3 to 0.4 mL/min, estimated dead time 0.63 min; A: water + 0.1% formic acid; B: methanol + 0.1% formic acid; gradient (min/%B) 0/0.5 0.1/0.5 10/80 10.1/99.5 12/99.5
# Conditions: stereoisomer not certain
row,Structure (SMILES),LC retention time [min]
1,CN(C)Cc1c[nH]c2ccccc12,3.06
2,C=CCC(=NOS(=O)(=O)O)SC1OC(CO)C(O)C(O)C1O (stereo not drawn),1.77
3,O=C1CC(c2ccc(O)cc2)Oc2c1c(O)cc(O)c2C1OC(CO)C(O)C(O)C1O (stereo not drawn),3.04
4,COc1ccc(-c2coc3cc(OC4OC(COC(=O)CC(=O)O)C(O)C(O)C4O)cc(O)c3c2=O)cc1 (stereo not drawn),6.06
5,COc1ccc(-c2coc3cc(OC4OC(COC(=O)CC5CCNCC5)C(O)C(O)C4O)c(OC)cc3c2=O)cc1 (stereo not drawn),4.67
6,CC(C)=CCc1c(O)ccc2c1OC(c1ccc(O)cc1)CC2=O (stereo not drawn),8.93
7,CCCCCCCCCCCCOS(=O)(=O)O,8.65
8,O=c1cc(-c2ccc(O)cc2)oc2c(C3OC(CO)C(O)C(O)C3O)c(O)c(C3OC(CO)C(O)C(O)C3O)c(O)c12 (stereo not drawn),3.3
9,NC(C(=O)O)c1ccccc1 (stereo not drawn),2
10,O=C(O)CCC(NC(=O)Cc1c[nH]c2ccccc12)C(=O)O (stereo not drawn),4.12
11,C=CC1C(OC2OC(CO)C(O)C(O)C2O)OC=C2C(=O)N3CCC(=O)c4ccccc4NC(=O)C3CC21 (stereo not drawn),3.77
12,O=C(C=Cc1ccc(O)c(O)c1)OC(Cc1ccc(O)c(O)c1)C(=O)O (stereo not drawn),4.6
13,COc1cc(C=CC(=O)OCC2OC(OC3C(c4c(O)cc5oc(-c6ccc(O)c(O)c6)cc(=O)c5c4O)OC(CO)C(O)C3O)C(O)C(O)C2O)ccc1O (stereo not drawn),3.87
14,CC1OC(OC2C(OC3C(OC4CCC5(C)C(CCC6(C)C5C=CC5=C7CC(C)(C)CC(O)C7(C)CCC56C)C4(C)CO)OC(C(=O)O)C(O)C3O)OC(C(=O)O)C(O)C2O)C(O)C(O)C1O (stereo not drawn),7.57
15,OCC=Cc1ccc(O)cc1,3.76
16,CC1=NCCc2c1[nH]c1cc(O)ccc21,3.06
17,O=C(O)CC(=O)OCC1OC(Oc2cc(O)c3c(=O)c(-c4ccc(O)cc4)coc3c2)C(O)C(O)C1O (stereo not drawn),4.89
18,CC1CCC2(NC1)OC1CC3C4CC=C5CC(OC6OC(CO)C(OC7OC(CO)C(O)C(OC8OCC(O)C(O)C8O)C7OC7OC(CO)C(O)C(O)C7O)C(O)C6O)CCC5(C)C4CCC3(C)C1C2C (stereo not drawn),4.72
19,COc1cc(C=CC(=O)NCCCCNC(=O)C=Cc2ccc(O)c(OC)c2)ccc1O,5.19
20,CC(C)=CCCC(C)(OC1OC(CO)C(O)C(O)C1O)C1CCC2(C)C1C(O)CC1C3(C)CCC(O)C(C)(C)C3C(OC3OC(CO)C(O)C(O)C3O)CC12C (stereo not drawn),4.8
21,CC1OC(OC2C(O)COC(OC3C(C)OC(OC4C(OC(=O)C56CCC(C)(C)CC5C5=CCC7C8(C)CCC(OC9OC(CO)C(O)C(O)C9O)C(C)(C)C8CCC7(C)C5(C)CC6O)OCC(O)C4O)C(O)C3O)C2O)C(O)C(O)C1O (stereo not drawn),6.12

row,Structure (SMILES),LC retention time [min]
1,CC(NC(=O)Cc1c[nH]c2ccccc12)C(=O)O (stereo not drawn),4.55
2,O=C(C=Cc1ccc(O)c(O)c1)OC1CC(OC(=O)C=Cc2ccc(O)c(O)c2)(C(=O)O)CC(O)C1O (stereo not drawn),3.49
3,CC(C)=CCc1cc(CCc2cc(O)c(CC=C(C)C)c(O)c2)ccc1O,9.01
4,O=C(C=Cc1ccc(O)c(O)c1)NCCCCN(CCCNC(=O)C=Cc1ccc(O)cc1)C(=O)C=Cc1ccc(O)c(O)c1,5
5,CCC(O)(C(=O)O)c1cc2n(c(=O)c1COC(C)=O)Cc1cc3ccccc3nc1-2 (stereo not drawn),5.4
6,COc1cc(-c2cc(=O)c3c(O)cc(OC4OC(CO)C(O)C(O)C4OC4OC(C)C(O)C(O)C4O)cc3o2)cc(OC)c1O (stereo not drawn),4.36
7,OCC1OC(OCC2OC(OCC3OC(OC4(CO)OC(CO)C(O)C4O)C(O)C(O)C3O)C(O)C(O)C2O)C(O)C(O)C1O (stereo not drawn),1.69
8,CC(O)(CC(=O)O)CC(=O)OCC1OC(Oc2c(-c3ccc(O)cc3)oc3cc(O)cc(O)c3c2=O)C(O)C(O)C1O (stereo not drawn),4.5
9,C[N+]1([O-])CCCC1c1cccnc1 (stereo not drawn),1.82
10,COc1ccc(-c2cc(=O)c3c(O)cc(O)cc3o2)cc1O,6.78
11,Cc1ncc(COC2OC(CO)C(O)C(O)C2O)c(CO)c1O (stereo not drawn),1.7
12,O=c1c(OC2OC(COC3OCC(O)C(O)C3O)C(O)C(O)C2O)c(-c2ccc(O)c(O)c2)oc2cc(O)cc(O)c12 (stereo not drawn),3.7
13,CS(=O)CCCCCCCCN (stereo not drawn),2.49
14,O=c1c(OC2OCC(O)C(O)C2O)c(-c2ccc(O)cc2)oc2cc(O)cc(O)c12 (stereo not drawn),4.47
15,COc1cc(-c2oc3cc(O)cc(O)c3c(=O)c2O)cc(O)c1O,5.37
16,O=c1cc(-c2ccc(O)cc2)oc2cc(OC3OC(CO)C(O)C(O)C3O)c(O)c(O)c12 (stereo not drawn),4.13
17,NC(CCC(=O)NCC(=O)O)C(=O)O (stereo not drawn),1.67
18,C[n+]1cc2c3c(ccc2c2ccc4cc5c(cc4c21)OCO5)OCO3,4.85
19,NCCCCNC(=O)C=Cc1ccccc1,3.7
20,C=CC1c2cc3n(c(=O)c2C2OC1OC1OC(CO)C(O)C(O)C1O2)CCc1c-3[nH]c2ccccc12 (stereo not drawn),5.46
21,COc1ccc(C2CC(=O)c3c(O)cc(OC4OC(CO)C(O)C(O)C4OC4OC(C)C(O)C(O)C4O)cc3O2)cc1O (stereo not drawn),4.59

row,Structure (SMILES),LC retention time [min]
1,O=C(O)CC(=O)OCC1OC(Oc2c(-c3cc(O)c(O)cc3O)oc3cc(O)cc(O)c3c2=O)C(O)C(O)C1O (stereo not drawn),3.88
2,O=C(Cc1c[nH]c2ccccc12)NC(Cc1c[nH]c2ccccc12)C(=O)O (stereo not drawn),6.19
3,CC1OC(Oc2cc(O)c3c(=O)c(O)c(-c4ccc(O)cc4)oc3c2)C(O)C(O)C1O (stereo not drawn),5.28
4,N#CC(OC1OC(COC2OC(CO)C(O)C(O)C2O)C(O)C(O)C1O)c1ccccc1 (stereo not drawn),3.32
5,CC(C)C(O)(C(=O)OCC1CCN2CCCC12)C(C)O (stereo not drawn),3.05
6,CC1OC(OC2CCC3(C)C(CCC4(C)C3C=CC3=C5CC(C)(C)CCC5(CO)C(O)CC34C)C2(C)CO)C(O)C(OC2OC(CO)C(O)C(O)C2O)C1O (stereo not drawn),7.11
7,O=c1c(O)c(-c2ccc(O)cc2)oc2cc(O)cc(O)c12,6.01
8,CC1(C(=O)O)CCC2(C)CCC3(C)C(=CCC4C5(C)CCC(OC6OC(C(=O)O)C(O)C(O)C6OC6OC(C(=O)O)C(O)C(O)C6O)C(C)(C)C5CCC43C)C2C1 (stereo not drawn),6.45
9,CCCCCC=CCC=CCCCCCCCC(=O)OCC(O)COP(=O)(O)OCCN (stereo not drawn),9.24
10,CCc1nccc2c1[nH]c1ccccc12,4.01
11,C=CC12CN(C)C3C4COC(CC41)C1(C(=O)Nc4ccccc41)C32 (stereo not drawn),3.21
12,COc1cc(O)c2c(=O)c(OC3OC(COC4OC(C)C(O)C(OC5OC(C)C(O)C(O)C5O)C4O)C(O)C(O)C3O)c(-c3ccc(O)c(O)c3)oc2c1 (stereo not drawn),4.79
13,CC1OC(OCC2OC(Oc3cc(O)c4c(c3)OC(c3ccc(O)c(O)c3)CC4=O)C(O)C(O)C2O)C(O)C(O)C1O (stereo not drawn),3.92
14,CC(=O)N1CCCC1C(=O)O (stereo not drawn),2.46
15,CC(C)CC(N)C(=O)NC(Cc1ccccc1)C(=O)O (stereo not drawn),3.64
16,CC(C)=CCc1c(O)ccc(-c2coc3cc(O)cc(O)c3c2=O)c1O,7.57
17,O=C(O)C(Cc1ccc(O)cc1)NCC1(O)OC(CO)C(O)C1O (stereo not drawn),1.82
18,CCC1CN2CCc3cc(OC)c(OC)cc3C2CC1CC1NCCc2cc(OC)c(OC)cc21 (stereo not drawn),3.41
19,CC(C)C(NC(=O)C(N)Cc1ccccc1)C(=O)O (stereo not drawn),2.98
20,CCN1CC2(COC)C(OC(C)=O)CC(OC)C34C5CC6(O)C(OC)C(O)C(OC(C)=O)(C5C6OC(=O)c5ccccc5)C(C(OC)C23)C14 (stereo not drawn),6.17
21,CC(C)=CCc1cc(C(O)=CC(=O)c2cc(CC=C(C)C)c(O)cc2O)ccc1O,9.52

row,Structure (SMILES),LC retention time [min]
1,CN1CCCCC1c1ccc(-c2cccnc2)nc1 (stereo not drawn),2.37
2,O=c1c(OC2OC(CO)C(O)C(O)C2OC2OC(CO)C(O)C(O)C2O)c(-c2ccc(O)cc2)oc2cc(O)cc(O)c12 (stereo not drawn),3.8
3,C=C(CCC=C(C)C)C1CCC2(C)C1C(O)CC1C3(C)CCC(O)C(C)(C)C3C(OC3OC(CO)C(O)C(O)C3OC3OC(C)C(O)C(O)C3O)CC12C (stereo not drawn),7.57
4,COc1cc(C=CC(=O)O)cc(OC)c1O,4.21
5,CCCCCC=CCC=CCCCCCCCC(=O)OCC(O)COP(=O)([O-])OCC[N+](C)(C)C (stereo not drawn),9.31
6,CC(C)CC(NC(=O)CN)C(=O)O (stereo not drawn),2.5
7,CCC1CC2CN3CCC4(O)C(=Nc5ccc(OC)cc54)C(C(=O)OC)(C2)C13 (stereo not drawn),4.01
8,COc1cc(-c2[o+]c3cc(O)cc(OC4OC(CO)C(O)C(O)C4O)c3cc2OC2OC(COC3OC(C)C(OC(=O)C=Cc4ccc(O)cc4)C(O)C3O)C(O)C(O)C2O)cc(O)c1O (stereo not drawn),3.76
9,O=c1ccc2ccc(O)c(O)c2o1,3.65
10,CCC(C)C(NC(=O)C(N)Cc1ccccc1)C(=O)O (stereo not drawn),3.79
11,C=CC1C2=CCOC(=O)C2=COC1OC1OC(CO)C(O)C(O)C1O (stereo not drawn),3.44
12,O=C1OCC(Cc2cccc(O)c2)C1Cc1cccc(O)c1 (stereo not drawn),6.18
13,CC(C)=CCc1c(O)ccc(C(=O)C=Cc2ccc(O)cc2)c1O,8.93
14,CCCCCCCCC1OC1CCCCCCCC(=O)O (stereo not drawn),10.3
15,CC=CS(=O)CC(NC=C1OCC(O)C(O)C1O)C(=O)O (stereo not drawn),1.86
16,CC(C)=CCCC(C)(OC1OC(COC2OC(CO)C(O)C(O)C2O)C(O)C(O)C1O)C1CCC2(C)C1C(O)CC1C3(C)CCC(OC4OC(CO)C(O)C(O)C4OC4OC(CO)C(O)C(O)C4O)C(C)(C)C3CCC12C (stereo not drawn),5.88
17,COc1ccc(CCNC(=O)C=Cc2ccc(O)c(OC)c2)cc1O,5.29
18,NC(Cc1c[nH]c2ccccc12)C(=O)O (stereo not drawn),2.8
19,CC(C)C(O)(CC(=O)O)C(=O)O (stereo not drawn),3.25
20,CN1Cc2c(ccc3c2OCO3)C2C(O)Cc3cc4c(cc3C21)OCO4 (stereo not drawn),4.53
